Several values for one entry are separate records, joined by “and”; a condition that tells them apart may be missing. Equal entries are not always repeated. Where two headings read alike, the source gives them in different places.

Assay [1] has as its system bacterial strain LF82 binding to the glycoprotein BSA-(Mannose)3. Description: Bacterial Binding Assay (BBA). The conditions noted are these: read-out: Bacterial Binding Assay IC50, LF82/Luciferase strain binding to BSA-(Man)3 coated plates, luminescence. The class given is cell-based, Escherichia coli. The essentials:
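Inhibition of LF82/luciferase E. coli adhesion is read as luminescence after washing off unbound cells. Compound and bacteria (10^7 per well) are co-incubated 40-75 min at room temperature on wells coated with 0.5-2 μg/mL BSA-(Man)3, with BSA-only wells as background; IC50 values derived.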

The target of assay [2] is T1, FimH-CRD (Escherichia coli, UniProt P08191).
T1 construct: The first 177 amino acids of the FimH protein are expressed as a fusion protein; thrombin tag (printed as 'fusion protein with thrombin') (cleaved yes); made in house; host or cells: bacteria (pET21b plasmid)
In words: Competitive binding assay by fluorescence polarization, assay 1 (compounds prepared by manual dilution). More on the design: species or system E. coli. How it is done:
The first 177 amino acids of the FimH protein are expressed as a fusion protein with thrombin in a pET21b plasmid in bacteria. This FimH protein sequence contains the carbohydrate recognition domain (CRD) and shall be termed FimH-CRD. Following bacterial expression of the protein, the FimH-CRD protein is purified to homogeneity and the thrombin tag removed by protease cleavage. A competitive binding assay by fluorescence polarization is performed using 5 nM of the Alexa 647 mannoside probe and 60 nM of the FimH-CRD. The samples are assayed in a low volume 384 well microtiter plate in a final volume of 20 μl. The final assay buffer conditions are the following, 50 mM Tris-Cl, ph 7.0, 100 mM NaCl, 1 mM EDTA, 5 mM β-mercaptoethanol, 0.05% BSA and 2.5% DMSO. Two assays are performed for FimH, termed assay 1 or assay 2. The assay conditions are the same for both assays except the following: assay 1 has compounds prepared by manual dilution in a serial dilution factor with 12-point dose response while assay 2 has compounds prepared by a robotics system also through a serial dilution factor (12 point dose response) and initially prepared in duplicate in 384 well-Corning polypropylene round bottom plates. The assay 2 plates have compound which is then frozen and must be thawed prior to use. Initially the Alexa 647 probe and the FimH-CRD are added to the assay buffer and then 0.5 μl of test compound (assay 1 or 2) between 0.4 nM to 75 μM final concentration are added (12 point titration with 3-fold serial dilution). Control wells for the Alexa 647 probe are prepared with the same conditions except for the addition of the FimH-CRD protein. Plates are then incubated for 5 hrs at room temperature in the dark and under humid conditions to prevent drying. Plates are read using the SpectraMax Paradigm multi-mode plate reader and the appropriate fluorescent polarization detection cartridge (Alexa-647).
Alexa 647 mannoside probe is prepared using the similar procedure reported for FAM mannoside (Han, Z. et. al., 2010, J. Med. Chem., 53, 4779) and is described in the scheme below.
To a blue colored stirred solution of (2S,3S,4S,5S,6R)-2-(4-aminobutoxy)-6-(hydroxymethyl)tetrahydropyran-3,4,5-triol (2.21 mg, 0.009 mmol) and the (2E)-2-[(2E,4E)-5-[3,3-dimethyl-5-sulfonato-1-(3-sulfonatopropyl)indol-1-ium-2-yl]penta-2,4-dienylidene]-3-[6-(2,5-dioxopyrrolidin-1-yl)oxy-6-oxo-hexyl]-3-methyl-1-(3-sulfonatopropyl)indoline-5-sulfonate (Potassium Ion (3)) (4.9 mg, 0.0044 mmol) in DMF (44 μL) is added Et3N (5.4 mg, 7.0 μL, 0.053 mmol) at RT. The solution is stirred at room temperature over night, concentrated, dissolved in water and purified on 12 g C-18 silica gel cartridge on Isolera system using acetonitrile in water (0 to 40%, 10 CV) and followed by lyophilization to afford Alexa 647 mannoside probe (3.3 mg, 34%) as deep blue solid.
The Kd values of the compounds are determined from dose response curves using twelve concentrations per compound in duplicate. Curves are fitted to data points using Fluorescence Polarization competitive displacement analysis, and Kds are interpolated from the resulting curves using GraphPad Prism software, version […] (GraphPad software Inc., San Diego, Calif., USA).

[3] abbreviates: Assay 1 Kd, 5 nM Alexa 647 mannoside probe, 60 nM FimH-CRD, replicate values in one cell.
Setting [4] is: read-out: Assay 1 Kd, 5 nM Alexa 647 mannoside probe, 60 nM FimH-CRD, replicate values in one cell.

T1 sequence (P08191 22-177): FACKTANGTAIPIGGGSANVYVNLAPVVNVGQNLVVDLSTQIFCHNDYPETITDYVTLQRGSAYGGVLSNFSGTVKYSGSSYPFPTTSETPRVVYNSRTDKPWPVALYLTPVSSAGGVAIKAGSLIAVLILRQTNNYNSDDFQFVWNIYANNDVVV

As to `COC(=O)c1cc(/C=C/C[C@H]2O[C@H](CO)[C@@H](O)[C@H](O)[C@@H]2O)ccc1/C=C/C[C@H]1O[C@H](CO)[C@@H](O)[C@H](O)[C@@H]1O` [Compound 26, (Methyl 2,5-bis[(E)-3-[(2R,3S,4R,5S,6R)-3,4,5-trihydroxy-6-(hydroxymethyl)tetrahydropyran-2-yl]prop-1-enyl]benzoate)], in assay [1], the IC50 is 850 nM. Also, the Kd in assay [2] (setting [3]) and in assay [2] (setting [4]) was < 5 nM throughout.

With `COc1cc(/C=C/C[C@H]2O[C@H](CO)[C@@H](O)[C@H](O)[C@@H]2O)c(OC)cc1/C=C/C[C@H]1O[C@H](CO)[C@@H](O)[C@H](O)[C@@H]1O` [Compound 30, ((2R,3S,4R,5S,6R)-2-[(E)-3-[2,5-Dimethoxy-4-[(E)-3-[(2R,3S,4R,5S,6R)-3,4,5-trihydroxy-6-(hydroxymethyl)tetrahydropyran-2-yl]prop-1-enyl]phenyl]allyl]-6-(hydroxymethyl)tetrahydropyran-3,4,5-triol)], in assay [1], the IC50 was 300 nM. Besides, the dissociation constant (Kd) in assay [2] (setting [3]) was 7 nM and < 5 nM.

With `Cc1cc(/C=C/C[C@H]2O[C@H](CO)[C@@H](O)[C@H](O)[C@@H]2O)ccc1/C=C/C[C@H]1O[C@H](CO)[C@@H](O)[C@H](O)[C@@H]1O` [Compound 27, ((2R,3S,4R,5S,6R)-2-(Hydroxymethyl)-6-[(E)-3-[3-methyl-4-[(E)-3-[(2R,3S,4R,5S,6R)-3,4,5-trihydroxy-6-(hydroxymethyl)tetrahydropyran-2-yl]prop-1-enyl]pheny]allyl]tetrahydropyran-3,4,5-triol)], the IC50 in assay [1] stood at 800 nM. Moreover, the Kd in assay [2] (setting [3]) and in assay [2] (setting [4]) was < 5 nM throughout.

For `OC[C@H]1O[C@H](n2cc(-c3cccc(-c4cn([C@H]5O[C@H](CO)[C@@H](O)[C@H](O)[C@@H]5O)nn4)c3)nn2)[C@@H](O)[C@@H](O)[C@@H]1O` [Compound 19, ((2R,3S,4S,5S,6S)-2-(Hydroxymethyl)-6-[4-[3-[1-[(2S,3S,4S,5S,6R)-3,4,5-trihydroxy-6-(hydroxymethyl)tetrahydropyran-2-yl]triazol-4-yl]phenyl]triazol-1-yl]tetrahydropyran-3,4,5-triol)], the IC50 in assay [1] amounted to 430 nM. The dissociation constant Kd in assay [2] (setting [3]) was 6 nM and < 5 nM.

Turning to `OC[C@H]1O[C@H](C/C=C/c2ccc(/C=C/C[C@H]3O[C@H](CO)[C@@H](O)[C@H](O)[C@@H]3O)c(F)c2)[C@@H](O)[C@@H](O)[C@@H]1O` [Compound 28], the IC50 in assay [1] amounted to 770 nM. Further, the dissociation constant Kd in assay [2] (setting [3]) and in assay [2] (setting [4]) was < 5 nM in each case.

Turning to `OC[C@H]1O[C@H](c2ccc(-n3cc([C@H]4O[C@H](CO)[C@@H](O)[C@H](O)[C@@H]4O)nn3)cc2)[C@@H](O)[C@@H](O)[C@@H]1O` [Compound 36, ((2R,3S,4R,5S,6R)-2-(Hydroxymethyl)-6-[4-[4-[(2R,3S,4R,5S,6R)-3,4,5-trihydroxy-6-(hydroxymethyl)tetrahydropyran-2-yl]triazol-1-yl]phenyl]tetrahydropyran-3,4,5-triol)], the Kd in assay [2] (setting [3]) was 6 nM and 14 nM and < 5 nM.

For `N#Cc1cc(/C=C/C[C@H]2O[C@H](CO)[C@@H](O)[C@H](O)[C@@H]2O)ccc1/C=C/C[C@H]1O[C@H](CO)[C@@H](O)[C@H](O)[C@@H]1O` [Compound 33, (2,5-Bis[(E)-3-[(2R,3S,4R,5S,6R)-3,4,5-trihydroxy-6-(hydroxymethyl)tetrahydropyran-2-yl]prop-1-enyl]benzonitrile)], the IC50 in assay [1] stood at 390 nM. Moreover, the dissociation constant Kd in assay [2] (setting [3]) and in assay [2] (setting [4]) was < 5 nM in each case.

On to `Cc1cc(/C=C/C[C@H]2O[C@H](CO)[C@@H](O)[C@H](O)[C@@H]2O)cc(C)c1/C=C/C[C@H]1O[C@H](CO)[C@@H](O)[C@H](O)[C@@H]1O` [Compound 31, ((2R,3S,4R,5S,6R)-2-[(E)-3-[3,5-Dimethyl-4-[(E)-3-((2R,3S,4R,5S,6R)-3,4,5-trihydroxy-6-(hydroxymethyl)tetrahydropyran-2-yl]prop-1-enyl]phenyl]allyl]-6-(hydroxymethyl)tetrahydropyran-3,4,5-triol)], for which the Kd in assay [2] (setting [3]) and in assay [2] (setting [4]) was < 5 nM each time.

For `OC[C@H]1O[C@H](c2cccc([C@H]3O[C@H](CO)[C@@H](O)[C@H](O)[C@@H]3O)c2)[C@@H](O)[C@@H](O)[C@@H]1O` [Compound 2], the IC50 in assay [1] is 4950 nM. Further, the dissociation constant Kd in assay [2] (setting [3]) is 125 nM and 62 nM.

In the case of `O=C(NCCNC(=O)c1cccc([C@H]2O[C@H](CO)[C@@H](O)[C@H](O)[C@@H]2O)c1)c1cccc([C@H]2O[C@H](CO)[C@@H](O)[C@H](O)[C@@H]2O)c1` [Compound 8, (R,R,S,R,S)-N,N′-(Ethane-1,2-diyl)bis(3-((2R,3S,4R,5S,6R)-3,4,5-trihydroxy-6-(hydroxymethyl)tetrahydro-2H-pyran-2-yl)benzamide)], in assay [2] (setting [3]), the Kd was 16 nM and 19 nM.

Consider `OC[C@H]1O[C@H](C/C=C/c2ccc(/C=C/C[C@H]3O[C@H](CO)[C@@H](O)[C@H](O)[C@@H]3O)cc2)[C@@H](O)[C@@H](O)[C@@H]1O` [Compound 24, ((2R,3S,4R,5S,6R)-2-(Hydroxymethyl)-6-[(E)-3-[4-[(E)-3-[(2R,3S,4R,5S,6R)-3,4,5-trihydroxy-6-(hydroxymethyl)tetrahydropyran-2-yl]prop-1-enyl]phenyl]allyl]tetrahydropyran-3,4,5-triol)], for which, in assay [1], the IC50 amounted to 650 nM. Also, the equilibrium dissociation constant (Kd) in assay [2] (setting [3]) and in assay [2] (setting [4]) was < 5 nM in each case.

With `OC[C@H]1O[C@H](C/C=C/c2ccc(/C=C/C[C@H]3O[C@H](CO)[C@@H](O)[C@H](O)[C@@H]3O)c(Cl)c2)[C@@H](O)[C@@H](O)[C@@H]1O` [Compound 29, ((2R,3S,4R,5S,6R)-2-[(E)-3-[3-Chloro-4-[(E)-3-[(2R,3S,4R,5S,6R)-3,4,5-trihydroxy-6-(hydroxymethyl)tetrahydropyran-2-yl]prop-1-enyl]phenyl]allyl]-6-(hydroxymethyl)tetrahydropyran-3,4,5-triol)], the IC50 in assay [1] was 1300 nM. Besides, the dissociation constant Kd in assay [2] (setting [3]) was 6 nM and 8 nM.

In the case of `O=C(Nc1ccc([C@H]2O[C@H](CO)[C@@H](O)[C@H](O)[C@@H]2O)cc1)c1cccc([C@H]2O[C@H](CO)[C@@H](O)[C@H](O)[C@@H]2O)c1` [Compound 39, (3-[(2R,3S,4R,5S,6R)-3,4,5-Trihydroxy-6-(hydroxymethyl)tetrahydropyran-2-yl]-N-[4-[(2R,3S,4R,5S,6R)-3,4,5-trihydroxy-6-(hydroxymethyl)tetrahydropyran-2-yl]phenyl]benzamide)], in assay [2] (setting [3]), the Kd is 29 nM and 46 nM.

`OC[C@H]1O[C@H](n2cc(-c3ccc(-c4cn([C@H]5O[C@H](CO)[C@@H](O)[C@H](O)[C@@H]5O)nn4)cc3)nn2)[C@@H](O)[C@@H](O)[C@@H]1O` [Compound 18, ((2R,3S,4S,5S,6S)-2-(Hydroxymethyl)-6-[4-[4-[1-[(2S,3S,4S,5S,6R)-3,4,5-trihydroxy-6-(hydroxymethyl)tetrahydropyran-2-yl]triazol-4-yl]phenyl]triazol-1-yl]tetrahydropyran-3,4,5-triol)]: the Kd in assay [2] (setting [3]) was 1060 nM and 1020 nM.

Take `OC[C@H]1O[C@H](c2cc([C@H]3O[C@H](CO)[C@@H](O)[C@H](O)[C@@H]3O)cc(C(F)(F)F)c2)[C@@H](O)[C@@H](O)[C@@H]1O` [Compound 3]: in assay [2] (setting [3]), the Kd is 51 nM and 40 nM.

In the case of `O=C(NCCOCCOCCNC(=O)c1cccc([C@H]2O[C@H](CO)[C@@H](O)[C@H](O)[C@@H]2O)c1)c1cccc([C@H]2O[C@H](CO)[C@@H](O)[C@H](O)[C@@H]2O)c1` [Compound 15, (R,R,S,R,S)-N,N′-((Ethane-1,2-diylbis(oxy))bis(ethane-2,1-diyl))bis(3-((2R,3S,4R,5S,6R)-3,4,5-trihydroxy-6-(hydroxymethyl)tetrahydro-2H-pyran-2-yl)benzamide)], in assay [2] (setting [3]), the dissociation constant Kd was 11 nM and 15 nM.

The record behind these values is patent US11634447B2 (priority 2012, dated 2023).
